Assay results reported in US7790899B2, “Synthesis of N-(4-fluorobenzyl)-N-(1-methylpiperidin-4-yl)-N′-(4-(2-methylpropyloxy)phenylmethyl)carbamide and its tartrate salt and crystalline forms” (ACADIA Pharmaceuticals, Inc., priority 2004, dated 2010).
Where a name gives a salt, the structure may show the parent alone. Read-outs that look alike come from different tables or passages of the source.

Assays:
[1] = Stability test, thermal treatment (sealed ampoules, 100° C., HPLC purity); type: physicochemical; settings: 1 week, listed as polymorph B
Protocol: (§1) HPLC: HPLC measurements were carried out with a HP LC1090M, Column Symmetry C18, 3.0·150 mm.
The compounds of Examples 3(b) (polymorph A), 25 (polymorph B), and 36 (polymorph C) were placed in sealed ampoules and exposed for 1 week to 100° C. […] The products where analyzed by HPLC and the purity was detected to indicate chemical stability via decomposition.

[2] = Stability of the crystal forms (general findings); type: physicochemical; settings: ambient temperatures
[3] = Water absorption and behaviour on exposure to relative humidity; type: physicochemical
[4] = Stability test, exposure to humidity (open containers, 60° C., 75% relative humidity); type: physicochemical; settings: 1 week and 2 weeks
Protocol: as §1
The compounds of Examples 3(b) (polymorph A), 25 (polymorph B), and 36 (polymorph C) were placed in open containers and exposed 1 week and 2 weeks at 60° C. and 75% relative humidity. In polymorph A, a water content of 2.8% was detected and the HPLC purity was 80%.

[5] = Particle size distribution; type: physicochemical
[6] = Approximate solubility of the crystalline free base in solvents at room temperature; type: physicochemical
[7] = Solubility statements in the description; settings: water

Compound: CC(C)COc1ccc(CNC(=O)N(Cc2ccc(F)cc2)C2CCN(C)CC2)cc1.CC(C)COc1ccc(CNC(=O)N(Cc2ccc(F)cc2)C2CCN(C)CC2)cc1.O=C(O)C(O)C(O)C(=O)O [Form B, N-(4-fluorobenzyl)-N-(1-methylpiperidin-4-yl)-N′-(4-(2-methylpropyloxy)phenylmethyl)carbamide hemi-tartrate]
- HPLC purity after thermal treatment [1]: 28.3%
- Stability at ambient temperatures [2]: stable
- Water uptake when exposed to high humidity ([3]; above 80% relative humidity): considerable water uptake
- Stability under ambient water partial pressures ([3]; relative humidities between 20% and 75%): sufficient stability
- Change of crystal form after exposure to humidity [4]: transformed to polymorph C
- HPLC purity after exposure to humidity ([4]; listed as polymorph B): 94.6%
- water content after exposure to humidity ([4]; listed as polymorph B): 1.9%

Compound: CC(C)COc1ccc(CNC(=O)N(Cc2ccc(F)cc2)C2CCN(C)CC2)cc1 [Example 60, N-(4-fluorobenzyl)-N-(1-methylpiperidin-4-yl)-N′-(4-(2-methylpropyloxy)phenylmethyl)carbamide tartrate]
- diameter of about 10% of the particles [5]: ≤ 9 μm
- diameter of about 50% of the particles [5]: ≤ 30 μm
- diameter of about 90% of the particles [5]: ≤ 55 μm

Compound: CC(C)COc1ccc(CNC(=O)N(Cc2ccc(F)cc2)C2CCN(C)CC2)cc1 [crystalline free base of formula I, N-(4-fluorobenzyl)-N-(1-methylpiperidin-4-yl)-N′-(4-(2-methylpropyloxy)phenylmethyl)carbamide]
- solubility ([6]; acetonitrile): <50 mg/mL
- solubility ([6]; ethyl acetate): <30 mg/mL
- solubility ([6]; organic solvent or mixture, 1,4-dioxane, read-out: Solubility): 140 mg/mL
- solubility ([6]; organic solvent or mixture, acetone, read-out: Solubility): 100 mg/mL
- solubility ([6]; organic solvent or mixture, dichloromethane, read-out: Solubility): > 500 mg/mL
- solubility ([6]; organic solvent or mixture, ethanol, read-out: Solubility): 260 mg/mL
- solubility ([6]; organic solvent or mixture, isopropanol, read-out: Solubility): 100 mg/mL
- solubility ([6]; organic solvent or mixture, methanol, read-out: Solubility): 170 mg/mL
- solubility ([6]; organic solvent or mixture, tetrahydrofuran, read-out: Solubility): > 250 mg/mL
- solubility ([6]; toluene): <70 mg/mL
- solubility ([6]; water, read-out: Solubility): < 4 mg/mL

Compound: CC(C)COc1ccc(CNC(=O)N(Cc2ccc(F)cc2)C2CCN(C)CC2)cc1 [Form D, N-(4-fluorobenzyl)-N-(1-methylpiperidin-4-yl)-N′-(4-(2-methylpropyloxy)phenylmethyl)carbamide hemi-tartrate]
- Stability in an open container ([3]; 53% relative humidity, open container): stable

Compound: CC(C)COc1ccc(CNC(=O)N(Cc2ccc(F)cc2)C2CCN(C)CC2)cc1 [formula IV, N-(4-fluorobenzyl)-N-(1-methylpiperidin-4-yl)-N′-(4-(2-methylpropyloxy)phenylmethyl)carbamide hemi-tartrate]
- Solubility in water or aqueous systems (in words) [7]: very good solubility

Compound: CC(C)COc1ccc(CNC(=O)N(Cc2ccc(F)cc2)C2CCN(C)CC2)cc1 [Example 56, N-(4-fluorobenzyl)-N-(1-methylpiperidin-4-yl)-N′-(4-(2-methylpropyloxy)phenylmethyl)carbamide hemi-tartrate]
- diameter of about 10% of the particles [5]: ≤ 5 μm
- diameter of about 50% of the particles [5]: ≤ 18 μm
- diameter of about 90% of the particles [5]: ≤ 35 μm

Compound: CC(C)COc1ccc(CNC(=O)N(Cc2ccc(F)cc2)C2CCN(C)CC2)cc1 [formula I, N-(4-fluorobenzyl)-N-(1-methylpiperidin-4-yl)-N′-(4-(2-methylpropyloxy)phenylmethyl)carbamide]
- Solubility in water or aqueous systems (in words) [7]: low solubility
